Values after ≈ are worked out from the molar mass of the structure shown. Read-outs that look alike come from different tables or passages of the source.
How the values were obtained:
poliovirus (PV type 1) = experiment: microbe, parasite or virus in culture; format: cell-based; conditions: Enterovirus C, read-out: PV-1 EC50
poliovirus (PV type 2) = experiment: microbe, parasite or virus in culture; format: cell-based; conditions: Enterovirus C, read-out: PV-2 EC50
poliovirus (PV type 3) = experiment: microbe, parasite or virus in culture; format: cell-based; conditions: Enterovirus C, read-out: PV-3 EC50
in vitro [1] = conditions: African green monkey, PV CC50
in vitro [2] = conditions: human, PV CC50
HIV-1 strain IIIB = experiment: Inhibition of replication of HIV-1 (IIIB strain) in MT-4 cells, MTT assay; format: cell-based; conditions: Human immunodeficiency virus 1, IIIB, MT4, 120 h; MT-4 cells, MTT assay, five days after infection, 50% protection from cytopathic effect; read-out: EC50 (μM) HIV-1 (IIIB)
HIV-2 strain (ROD) = experiment: Inhibition of replication of HIV-2 (ROD strain) in MT-4 cells, MTT assay; format: cell-based; conditions: Human immunodeficiency virus 2, MT4, 120 h; MT-4 cells, MTT assay, five days after infection, 50% protection from cytopathic effect; read-out: EC50 (μM) HIV-2 (ROD)
in vitro [3] = conditions: human
[4] = tested on: genotype 1a H-77 replicon; experiment: HCV-1a replicon potency in RLuc-1 cells, bioluminescence; format: cell-based; conditions: for HCV-1a Replicon Selectivity Index: CC50/EC50, genotype 1a replicon; for EC50: Hepatitis C virus, 72 h, read-out: HCV-1a Replicon EC50 (μM)
[5] = Cytotoxicity in HCV-1a replicon cells, Promega CellTiter-Glo cell viability assay

SMILES | EC50 (poliovirus (PV type 1); HeLa) | EC50 (poliovirus (PV type 1); Vero) | EC50 (poliovirus (PV type 2); HeLa) | EC50 (poliovirus (PV type 2); Vero) | EC50 (poliovirus (PV type 3); HeLa) | EC50 (poliovirus (PV type 3); Vero) | CC50 (in vitro [1]) | CC50 (in vitro [2]) | EC50 (HIV-1 strain IIIB) | EC50 (HIV-2 strain (ROD)) | CC50 (in vitro [3]) | HCV-1a Replicon Selectivity Index [4] | EC50 [4] | CC50 at 72 h [5]
C[C@@]1(O)[C@H](O)[C@@H](CO)O[C@H]1n1ccc(N)nc1=O [2′-C-methylcytidine] | 3.74 µg/mL (≈ 14.5 µM) | 3.58 µg/mL (≈ 13.9 µM) | 7.27 µg/mL (≈ 28.3 µM) | 4.6 µg/mL (≈ 17.9 µM) | 11.4 µg/mL (≈ 44.4 µM) | 15.3 µg/mL (≈ 59.6 µM) | > 150 µg/mL | > 50 µg/mL | – | – | – | – | – | –
Cc1nc(N2CCN(C(=O)COc3ccc(Cl)cc3)CC2)c2nc(Cc3ccc(F)cc3)oc2n1 [Example 171, 2-(4-chlorophenoxy)-1-(4-(2-(4-fluorobenzyl)-5-methyloxazolo[5,4-d]pyrimidin-7-yl)piperazin-1-yl)ethanone] | > 50 µg/mL | > 50 µg/mL | ≥ 50 µg/mL | 0.07 µg/mL (≈ 0.141 µM) | > 50 µg/mL | > 50 µg/mL | 118 µg/mL (≈ 238 µM) | 46.1 µg/mL (≈ 93 µM) | > 29.6 µM | > 33 µM | 33 µM | – | – | –
CCCCCc1nc2c(N3CCN(C(=O)COc4ccc(Cl)cc4)CC3)nc(N)nc2o1 [Example 188, 5-amino-7-[4-(4-chlorophenoxyacetyl)piperazin-1-yl]-2-pentyloxazolo[5,4-d]pyrimidine] | 0.38 µg/mL (≈ 0.828 µM) | 0.14 µg/mL (≈ 0.305 µM) | 0.36 µg/mL (≈ 0.784 µM) | 0.11 µg/mL (≈ 0.24 µM) | 0.48 µg/mL (≈ 1.05 µM) | 0.32 µg/mL (≈ 0.697 µM) | 103 µg/mL (≈ 225 µM) | > 50 µg/mL | – | – | – | – | – | –
COc1ccc(OCC(=O)N2CCN(c3ncnc4sc(CCc5ccc(F)cc5)nc34)CC2)cc1 [Example 302, 1-(4-(2-(4-fluorophenethyl)thiazolo[5,4-d]pyrimidin-7-yl)piperazin-1-yl)-2-(4-methoxyphenoxy)ethanone] | < 0.023 µg/mL | < 0.023 µg/mL | < 0.023 µg/mL | < 0.023 µg/mL | < 0.023 µg/mL | 0.085 µg/mL (≈ 0.167 µM) | 50 µg/mL (≈ 98.5 µM) | > 50 µg/mL | – | – | – | – | – | –
COCCN1CCN(c2nc(N)nc3oc(-c4ccc(F)cc4)nc23)CC1 [Example 192, 5-amino-2-(4-fluorophenyl)-7-[4-(2-methoxyethyl)-piperazin-1-yl]-oxazolo[5,4-d]pyrimidine] | > 50 µg/mL | > 50 µg/mL | > 50 µg/mL | ≥ 50 µg/mL | > 50 µg/mL | > 50 µg/mL | 100 µg/mL (≈ 269 µM) | > 50 µg/mL | – | – | – | – | – | –
CC(C)S(=O)(=O)n1c(N)nc2ccc(/C(=N/O)c3ccccc3)cc21 [Enviroxime] | 0.13 µg/mL (≈ 0.363 µM) | 0.11 µg/mL (≈ 0.307 µM) | 0.041 µg/mL (≈ 0.114 µM) | 0.04 µg/mL (≈ 0.112 µM) | 0.12 µg/mL (≈ 0.335 µM) | 1.03 µg/mL (≈ 2.87 µM) | > 150 µg/mL | 21.2 µg/mL (≈ 59.3 µM) | – | – | – | – | – | –
CC(C)CN1CCN(c2nc(N)nc3oc(-c4ccc(F)cc4)nc23)CC1 [Example 190, 5-amino-2-(4-fluorophenyl)-7-(4-isobutylpiperazin-1-yl)-oxazolo[5,4-d]pyrimidine] | 1.15 µg/mL (≈ 3.1 µM) | 1.08 µg/mL (≈ 2.92 µM) | 1.17 µg/mL (≈ 3.16 µM) | 1.02 µg/mL (≈ 2.75 µM) | 1.13 µg/mL (≈ 3.05 µM) | 2.79 µg/mL (≈ 7.53 µM) | 130 µg/mL (≈ 352 µM) | 32.3 µg/mL (≈ 87.2 µM) | – | – | – | – | – | –
CCCCc1nc(N2CCN(C(=O)COc3ccc(Cl)cc3)CC2)c2cc(-c3ccc(F)cc3)sc2n1 [Example 313, 1-(4-(2-butyl-6-(4-fluorophenyl)thieno[2,3-d]pyrimidin-4-yl)piperazin-1-yl)-2-(4-chlorophenoxy)ethanone] | > 50 µg/mL | > 50 µg/mL | ≥ 50 µg/mL | ≥ 50 µg/mL | > 50 µg/mL | > 50 µg/mL | > 150 µg/mL | > 50 µg/mL | – | – | – | – | – | –
Nc1nc(N2CCN(S(=O)(=O)Cc3ccccc3)CC2)c2nc(CCc3ccc(F)cc3)sc2n1 [Example 137, 5-amino-2-[2-(4-fluorophenyl)ethyl]-7-[4-phenylmethanesulfonylpiperazin-1-yl]-thiazolo[5,4-d]pyrimidine] | – | – | – | – | – | – | – | – | – | – | – | 0.8 | 26.9 µM | 21.8 µM
CCCSc1nc2c(N3CCN(C(=O)COc4ccc(Cl)cc4)CC3)nc(N)nc2[nH]1 [Example 425, 1-(4-(2-amino-8-(propylthio)-9H-purin-6-yl)piperazin-1-yl)-2-(4-chlorophenoxy)ethanone] | – | – | – | – | – | – | – | – | – | – | – | 19.7 | 1.2 µM | 23.6 µM
Nc1nc(N2CCN(C(=O)COc3ccc(Cl)cc3)CC2)c2nc(Cc3ccc(Cl)cc3)sc2n1 [Example 122, 5-amino-7-[4-(4-chlorophenoxyacetyl)piperazin-1-yl]-2-(4-chlorophenylmethyl)thiazolo[5,4-d]pyrimidine] | – | – | – | – | – | – | – | – | – | – | – | 5.8 | 4.7 µM | 26.8 µM
O=C(COc1ccc(Cl)cc1)N1CCN(c2ncnc3sc(-c4ccc(F)cc4)cc23)CC1 [Example 312, 2-(4-chlorophenoxy)-1-(4-(6-(4-fluorophenyl)thieno[2,3-d]pyrimidin-4-yl)piperazin-1-yl)ethanone] | 3.77 µg/mL (≈ 7.81 µM) | 1.12 µg/mL (≈ 2.32 µM) | 1.28 µg/mL (≈ 2.65 µM) | 0.68 µg/mL (≈ 1.41 µM) | > 1.85 µg/mL | 2.05 µg/mL (≈ 4.24 µM) | 116 µg/mL (≈ 240 µM) | > 50 µg/mL | – | – | – | – | – | –
Nc1nc(N2CCN(C(=O)COc3ccccc3)CC2)c2cc(-c3ccccc3)sc2n1 [Example 332, 1-(4-(2-amino-6-phenylthieno[2,3-d]pyrimidin-4-yl)piperazin-1-yl)-2-phenoxyethanone] | – | – | – | – | – | – | – | – | – | – | – | 0.9 | > 44.4 µM | 38.5 µM
Nc1nc(N2CCN(C(=O)Nc3ccc(Cl)cc3)CC2)c2cc(-c3ccccc3)sc2n1 [Example 331, 4-(2-amino-6-phenylthieno[2,3-d]pyrimidin-4-yl)-N-(4-chlorophenyl)piperazine-1-carboxamide] | – | – | – | – | – | – | – | – | – | – | – | 1.8 | 18.7 µM | 34.3 µM
Nc1nc(N2CCN(C(=O)COc3ccc(Cl)cc3)CC2)c2nc(C3CCCCC3)sc2n1 [Example 120, 5-amino-7-[4-(4-chlorophenoxyacetyl)piperazin-1-yl]-2-cyclohexylthiazolo[5,4-d]pyrimidine] | – | – | – | – | – | – | – | – | – | – | – | 2.1 | 6.4 µM | 13.4 µM
Nc1nc(N2CCN(CC(=O)Nc3cccnc3)CC2)c2nc(-c3ccc(F)cc3)[nH]c2n1 [Example 412, 2-(4-(2-amino-8-(4-fluorophenyl)-9H-purin-6-yl)piperazin-1-yl)-N-(pyridin-3-yl)acetamide] | – | – | – | – | – | – | – | – | – | – | – | >111 | 0.4 µM | > 44.4 µM
Nc1nc(N2CCN(C(=O)COc3ccc(Cl)cc3)CC2)c2cc(-c3ccccc3)sc2n1 [Example 329, 1-(4-(2-amino-6-phenylthieno[2,3-d]pyrimidin-4-yl)piperazin-1-yl)-2-(4-chlorophenoxy)ethanone] | – | – | – | – | – | – | – | – | – | – | – | 3.8 | 11.8 µM | > 44.4 µM
CC(=O)N1CCN(c2nc(N)nc3oc(-c4ccc(F)cc4)nc23)CC1 [Example 191, 5-amino-2-(4-fluorophenyl)-7-(4-acetylpiperazin-1-yl)-oxazolo[5,4-d]pyrimidine] | 28.6 µg/mL (≈ 80.3 µM) | 27.5 µg/mL (≈ 77.1 µM) | ≥ 50 µg/mL | 21.6 µg/mL (≈ 60.6 µM) | > 50 µg/mL | > 50 µg/mL | 112 µg/mL (≈ 313 µM) | > 50 µg/mL | – | – | – | – | – | –
Nc1nc(N2CCN(C(=O)COc3ccc(Cl)cc3)CC2)c2nc(SCCc3ccccc3)[nH]c2n1 [Example 427, 1-(4-(2-amino-8-(phenethylthio)-9H-purin-6-yl)piperazin-1-yl)-2-(4-chlorophenoxy)ethanone] | – | – | – | – | – | – | – | – | – | – | – | 1.1 | 5.2 µM | 5.8 µM
Nc1nc(N2CCN(C(=O)COc3ccc(Cl)cc3)CC2)c2nc(C(c3ccc(F)cc3)C3CCCC3)sc2n1 (stereo not drawn) [Example 151, 5-amino-2-[cyclopentyl-(4-fluorophenyl)methyl]-7-(4-[2-(4-chlorophenoxy)acetyl]piperazin-1-yl)thiazolo[5,4-d]pyrimidine] | – | – | – | – | – | – | – | – | – | – | – | 2.1 | 14.7 µM | 31.2 µM
Nc1nc(N2CCN(C(=O)COc3ccc(Cl)cc3)CC2)c2nc(C3CC3)oc2n1 [Example 185, 5-amino-2-cyclopropyl-7-[4-(4-chlorophenoxyacetyl)piperazin-1-yl]-oxazolo[5,4-d]pyrimidine] | 0.4 µg/mL (≈ 0.933 µM) | 2.17 µg/mL (≈ 5.06 µM) | ≥ 50 µg/mL | 5.48 µg/mL (≈ 12.8 µM) | > 50 µg/mL | > 50 µg/mL | 97.7 µg/mL (≈ 228 µM) | > 50 µg/mL | – | – | – | – | – | –
CC(=O)N1CCN(c2nc(N)nc3[nH]c(-c4ccc(F)cc4)nc23)CC1 [Example 408, 1-(4-(2-amino-8-(4-fluorophenyl)-9H-purin-6-yl)piperazin-1-yl)ethanone] | – | – | – | – | – | – | – | – | – | – | – | – | > 44.4 µM | > 44.4 µM
Cc1cccc(NC(=O)N2CCN(c3nc(N)nc4oc(CCc5ccc(F)cc5)nc34)CC2)c1 [Example 196, 5-amino-2-[2-(4-fluorophenyl)ethyl]-7-(4-m-tolylcarbamoylpiperazin-1-yl)-oxazolo[5,4-d]pyrimidine] | – | – | – | – | – | – | – | – | – | – | – | 1.6 | 15.6 µM | 24.5 µM

Source: patent publication US9730944B2, “Antiviral activity of novel bicyclic heterocycles” (priority 2010, dated 2017)
